According to US8959984B2, “Proteome-wide quantification of small molecule binding to cellular target proteins” (priority 2007, dated 2015):
Where two headings read alike, the source gives them in different places.

Legend:
[1] = target: MNK1 (MKNK1) (Homo sapiens, UniProt Q9BUB5); assay: binding to AX14596 beads (HeLa lysate, SILAC MS); design: endogenous in cells; host or cells: HeLa S3
Experimental: (§1) Differentially SILAC-encoded cell lysates were either incubated with the inhibitor beads displaying immobilized AX14596 or control resin devoid of ligand. In parallel, the supernatant from the first binding step was subjected to a second incubation with the AX14596 resin (FIG. 4). The resulting three elution fractions were combined, resolved by gel electrophoresis, proteolytically digested and the relative abundance of the retained proteins quantified. Proteins showing considerable binding to the control resin were identified as non-specific interactors and therefore not considered further. […] These target-specific ratios were similar in “label switch” experiments (FIGS. 6a and 6c). The binding equilibrium was determined in parallel control SILAC experiments as well as the excess of the immobilized compound over its cellular targets, the excess preferably being a molar excess (FIG. 7 and FIG. 8).
(§2) Cysteine carbamidomethylation was set as a fixed modification and N-acetyl protein and oxidized methionine were allowed as variable modifications. Spectra that were determined to result from heavy labeled peptides in the pre-search detection of SILAC partners by MaxQuant were searched with the fixed modifications Lys^4, Lys^8, Arg^6 and Arg^10, whereas MS/MS spectra for which no SILAC state could be assigned before database searching were searched with Lys^4, Lys^8, Arg^6 and Arg^10 as variable modifications. The mass tolerance was set to 5 ppm for monoisotopic precursor ions and to 0.5 Da for MS/MS peaks. The minimum peptide length was set to 6 amino acids and up to three missed cleavages and three isotopically labeled amino acids were permitted per peptide. The accepted false discovery rate (FDR) was 1% for the proteins and peptides. The cut-off for the posterior error probability (PEP) of peptides was set to 10%. Peptide PEPs were determined by generating Mascot score and peptide-length-dependent histograms for both the forward and the reverse hits and then deriving the probability of a false identification for a given top-scoring peptide using Bayes' theorem. The PEPs of peptides belonging to the same proteins were then multiplied. Each peptide sequence was considered only once with the lowest PEP determined in case of multiple sequencing of the same isotopic pattern or of peptide species with different SILAC, charge or modification states. Proteins were then sorted according to their products of their peptide PEPs and included until a FDR of 1% was reached according to the fraction of reverse proteins contained in the protein list. In addition to the FDR threshold applied for protein identification, proteins were only included when they were identified with at least two peptides (of which one was required to be unique for the protein) and quantified if at least on quantifiable SILAC pair was associated with them. Outliers were not removed as protein ratios were calculated as the median instead of the average of all peptide ratios. For peptides shared among different identified proteins, SILAC ratios were only considered for the ratio of the protein identified with the highest number of unique peptides. Protein ratios for the different in vitro association experiments were corrected for the initial SILAC pooling ratio, which was determined from the median of protein ratios in pooled SILAC-encoded cell extracts.

[2] = target: SPR (Homo sapiens, UniProt P35270); assay: binding to AX14596 beads (HeLa lysate, SILAC MS); design: endogenous in cells; host or cells: HeLa S3
Sequence of SPR (P35270 whole entry): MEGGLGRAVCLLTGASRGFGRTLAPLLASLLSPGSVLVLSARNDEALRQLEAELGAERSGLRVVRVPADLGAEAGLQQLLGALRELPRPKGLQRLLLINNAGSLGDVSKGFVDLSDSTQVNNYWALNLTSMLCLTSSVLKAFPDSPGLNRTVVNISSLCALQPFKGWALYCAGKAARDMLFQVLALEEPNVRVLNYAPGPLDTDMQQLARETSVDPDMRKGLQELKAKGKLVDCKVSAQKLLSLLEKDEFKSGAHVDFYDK
Experimental: as §1, §2

[3] = target: CK1e (CSNK1E) (Homo sapiens, UniProt P49674); assay: binding to AX14596 beads (HeLa lysate, SILAC MS); design: endogenous in cells; host or cells: HeLa S3
Sequence of CK1e (CSNK1E) (P49674 whole entry): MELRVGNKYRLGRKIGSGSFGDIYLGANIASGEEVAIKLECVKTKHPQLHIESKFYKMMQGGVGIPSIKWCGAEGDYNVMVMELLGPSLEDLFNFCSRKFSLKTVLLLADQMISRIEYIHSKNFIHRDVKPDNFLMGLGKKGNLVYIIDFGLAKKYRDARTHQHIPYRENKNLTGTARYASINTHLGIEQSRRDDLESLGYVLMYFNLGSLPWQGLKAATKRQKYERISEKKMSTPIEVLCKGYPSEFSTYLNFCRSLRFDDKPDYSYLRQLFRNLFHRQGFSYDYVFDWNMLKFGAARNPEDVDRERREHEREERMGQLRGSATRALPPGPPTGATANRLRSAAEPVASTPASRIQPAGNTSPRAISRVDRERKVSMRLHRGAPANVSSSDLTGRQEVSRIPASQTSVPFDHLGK
Experimental: as §1, §2

[4] = target: NAMPT (Homo sapiens, UniProt P43490); assay: binding to AX14596 beads (HeLa lysate, SILAC MS); design: endogenous in cells; host or cells: HeLa S3
Sequence of NAMPT (P43490 whole entry): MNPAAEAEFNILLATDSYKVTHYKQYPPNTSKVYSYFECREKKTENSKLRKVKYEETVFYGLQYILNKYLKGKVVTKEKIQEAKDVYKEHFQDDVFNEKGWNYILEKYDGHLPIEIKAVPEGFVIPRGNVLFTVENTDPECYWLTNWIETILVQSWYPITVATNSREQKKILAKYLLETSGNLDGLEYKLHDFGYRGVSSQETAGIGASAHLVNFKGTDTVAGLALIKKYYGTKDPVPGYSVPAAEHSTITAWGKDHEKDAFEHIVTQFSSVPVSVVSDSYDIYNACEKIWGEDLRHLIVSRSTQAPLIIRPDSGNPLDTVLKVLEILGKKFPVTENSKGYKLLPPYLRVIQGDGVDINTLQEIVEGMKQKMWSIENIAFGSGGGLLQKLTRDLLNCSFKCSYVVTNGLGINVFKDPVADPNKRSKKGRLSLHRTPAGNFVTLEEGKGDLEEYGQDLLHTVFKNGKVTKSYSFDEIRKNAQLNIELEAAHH
Experimental: as §1, §2

[5] = target: NUDT12 (Homo sapiens, UniProt Q9BQG2); assay: binding to AX14596 beads (HeLa lysate, SILAC MS); design: endogenous in cells; host or cells: HeLa S3
Sequence of NUDT12 (Q9BQG2 whole entry): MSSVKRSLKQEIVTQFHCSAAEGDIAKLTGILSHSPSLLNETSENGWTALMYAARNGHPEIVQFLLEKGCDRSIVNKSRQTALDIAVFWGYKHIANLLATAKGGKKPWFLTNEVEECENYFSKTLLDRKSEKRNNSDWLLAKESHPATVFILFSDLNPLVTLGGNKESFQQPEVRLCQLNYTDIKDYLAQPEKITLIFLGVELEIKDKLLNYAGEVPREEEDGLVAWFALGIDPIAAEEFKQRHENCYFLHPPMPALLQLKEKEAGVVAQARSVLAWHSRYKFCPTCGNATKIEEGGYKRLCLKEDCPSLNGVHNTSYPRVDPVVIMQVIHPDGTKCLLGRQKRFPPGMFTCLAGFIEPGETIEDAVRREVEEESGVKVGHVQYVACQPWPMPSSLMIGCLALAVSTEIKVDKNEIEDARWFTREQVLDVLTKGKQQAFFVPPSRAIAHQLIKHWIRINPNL
Experimental: as §1, §2

[6] = target: T1, TLK1 (Homo sapiens, UniProt Q9UKI8); assay: binding to immobilized V16742 (IVA1/IVA2, HeLa lysate, MS)
T1 construct: endogenous in cells; host or cells: HeLa S3
T1 sequence (Q9UKI8 1-766): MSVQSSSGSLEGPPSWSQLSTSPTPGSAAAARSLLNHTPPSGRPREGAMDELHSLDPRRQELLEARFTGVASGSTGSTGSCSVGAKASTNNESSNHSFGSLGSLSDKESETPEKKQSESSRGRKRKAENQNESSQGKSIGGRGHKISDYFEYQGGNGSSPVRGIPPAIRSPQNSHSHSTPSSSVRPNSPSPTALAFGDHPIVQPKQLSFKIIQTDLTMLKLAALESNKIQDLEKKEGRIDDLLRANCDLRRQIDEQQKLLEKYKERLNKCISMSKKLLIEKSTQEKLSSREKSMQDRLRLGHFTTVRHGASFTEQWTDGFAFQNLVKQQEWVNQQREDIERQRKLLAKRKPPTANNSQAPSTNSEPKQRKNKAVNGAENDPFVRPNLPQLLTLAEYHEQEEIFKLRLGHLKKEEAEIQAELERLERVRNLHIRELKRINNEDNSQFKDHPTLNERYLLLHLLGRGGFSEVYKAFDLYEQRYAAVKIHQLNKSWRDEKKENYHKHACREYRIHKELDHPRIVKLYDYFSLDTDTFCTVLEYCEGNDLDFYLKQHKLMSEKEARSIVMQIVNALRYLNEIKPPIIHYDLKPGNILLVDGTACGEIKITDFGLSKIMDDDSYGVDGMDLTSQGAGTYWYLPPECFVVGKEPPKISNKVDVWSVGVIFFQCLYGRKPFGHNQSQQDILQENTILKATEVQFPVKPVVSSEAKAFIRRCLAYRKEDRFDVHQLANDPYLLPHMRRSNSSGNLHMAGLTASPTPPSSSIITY

Sequence of MNK1 (MKNK1) (Q9BUB5 whole entry): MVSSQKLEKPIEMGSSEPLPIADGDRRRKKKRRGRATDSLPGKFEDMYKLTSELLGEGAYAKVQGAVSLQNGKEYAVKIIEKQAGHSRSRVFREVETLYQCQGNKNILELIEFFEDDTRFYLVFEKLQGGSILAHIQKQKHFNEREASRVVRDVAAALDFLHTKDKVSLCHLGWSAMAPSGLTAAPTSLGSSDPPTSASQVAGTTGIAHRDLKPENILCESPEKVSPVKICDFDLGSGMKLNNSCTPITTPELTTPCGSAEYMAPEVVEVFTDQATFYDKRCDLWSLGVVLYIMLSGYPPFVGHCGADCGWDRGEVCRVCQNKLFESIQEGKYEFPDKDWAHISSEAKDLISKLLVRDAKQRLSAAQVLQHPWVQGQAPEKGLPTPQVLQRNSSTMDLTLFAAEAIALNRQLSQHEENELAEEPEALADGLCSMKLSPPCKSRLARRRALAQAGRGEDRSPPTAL

With `COc1cc2ncnc(Nc3ccc(F)c(Cl)c3)c2cc1OCCCN` [AX14596] the Ki [1] was 922 µM, the “r (3 mg/1 mg lysate)” value [1] was 2.94 and the “r (5 h/2.5 h inc. time)” value [1] was 1.05. The “rAVERAGE (2. inc/1. inc)” value [1] was 0.90, the “rAVERAGE (control/1. inc)” value [1] was 0.04 and the Ki [2] was 1860 µM. The “r (3 mg/1 mg lysate)” value [2] was 2.91, the “r (5 h/2.5 h inc. time)” value [2] was 2.43 and the “rAVERAGE (2. inc/1. inc)” value [2] was 0.95. The “rAVERAGE (control/1. inc)” value [2] was 0.02, the Ki [3] was 4080 µM and the “r (3 mg/1 mg lysate)” value [3] was 2.87. For the same compound, the “r (5 h/2.5 h inc. time)” value [3] was 1.23, the “rAVERAGE (2. inc/1. inc)” value [3] was 0.98 and the “rAVERAGE (control/1. inc)” value [3] was 0.09. The Ki [4] was 41.2 µM, the “r (3 mg/1 mg lysate)” value [4] was 7.48 and the “r (5 h/2.5 h inc. time)” value [4] was 0.39. The “rAVERAGE (2. inc/1. inc)” value [4] was 0.29, the “rAVERAGE (control/1. inc)” value [4] was 0.04 and the Ki [5] was 16.1 µM. For the same compound, the “r (3 mg/1 mg lysate)” value [5] was 2.24, the “r (5 h/2.5 h inc. time)” value [5] was 0.91 and the “rAVERAGE (2. inc/1. inc)” value [5] was 0.14. For the same compound, the “rAVERAGE (control/1. inc)” value [5] was 0.04.

With `CC(C)n1c(=O)ccc2cnc(Nc3ccc(OCCN)cc3)nc21` [V16742] the “Percent bound at various 16742 conc” value ([6]; Experiment 1, 1.87 μM 16742) was 1.34%, the “Percent bound at various 16742 conc” value ([6]; Experiment 1, 8.74 μM 16742) was 2.39% and the “Percent bound at various 16742 conc” value ([6]; Experiment 1, 52 μM 16742) was 49.12%. The Kd ([6]; Experiment 1, read-out: Kd) was 64 µM, the “Percent bound at various 16742 conc” value ([6]; Experiment 2, 1.87 μM 16742) was 0.76% and the “Percent bound at various 16742 conc” value ([6]; Experiment 2, 8.74 μM 16742) was 1.97%. For the same compound, the “Percent bound at various 16742 conc” value ([6]; Experiment 2, 52 μM 16742) was 31.56%, the Kd ([6]; Experiment 2, read-out: Kd) was 121 µM and the Kd ([6]; average of two experiments, read-out: Kd Avg) was 92.4 µM.
